Data as given in patent US7728158B2, “PPAR activity regulators” (Ajinomoto Co., Inc., priority 2006, dated 2010).

Key:
PPAR-α = biological target: T1, PPAR-α (Homo sapiens, UniProt Q07869); test: PPAR-α reporter assay (GAL4 luciferase, CV-1 cells); assay type: cell-based; conditions: induction ratio of luciferase activity at 50 μM, activity without tested compound = 1, hGR-GAL4-hPPAR-α
T1 construct: expressed in transfected cells; host or cells: CV-1 (African green monkey kidney)
T1 sequence (Q07869 167-468): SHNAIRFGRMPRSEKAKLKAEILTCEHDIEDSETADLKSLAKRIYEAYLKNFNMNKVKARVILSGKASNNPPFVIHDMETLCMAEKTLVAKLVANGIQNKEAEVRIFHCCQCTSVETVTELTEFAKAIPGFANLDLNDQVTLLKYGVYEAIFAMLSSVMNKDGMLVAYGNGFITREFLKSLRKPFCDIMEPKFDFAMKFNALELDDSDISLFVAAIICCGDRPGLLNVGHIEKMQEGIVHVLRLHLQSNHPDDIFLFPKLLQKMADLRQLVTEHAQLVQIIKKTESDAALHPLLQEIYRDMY
Procedure: The reporter assay of PPAR (peroxisome proliferator-activated receptor)-α was conducted by using the following plasmids in accordance with the known report (Steven A. Kliwer et al., The Journal of Biological Chemistry Vol. 270, No. 22: 12953-12956, 1995).
As luciferase expressing plasmid, used was the plasmid which introduces the sequence wherein 5 yeast GAL4 binding sequences, UAS (upstream activating sequence), are tandemly connected to the upstream of the thymidine kinase promoter of pTAL-Luc (#6252-1, produced by Clontech) (UAS×5-TK-Luc) (1).
(§1) As PPAR-α receptor expressing plasmid, used was the plasmid which introduces the N-terminal domain of human GR (1-76aa), the yeast GAL4 DNA binding domain (1-147aa) and PPAR-α ligand binding domain (167-468aa) to NotI site and SalI site of pExchange-1 core vector (#211176, produced by Stratagene) (hGR-GAL4-hPPAR-α) (2). The plasmid mixed solution used in the reporter assay of PPAR-α contains above (1), (2) and plasmid pcDNA3.1(−) as a carrier in the weight ratio of 4:1:3.
The medium having the following composition was used for seeding cell line CV-1 used in the reporter assay, derived from the kidney of an African green monkey, on the plate; and for diluting the tested compounds. Used was Dulbecco modified Eagle medium (D2902 without phenol red, produced by SIGMA) to which 3.7 g/L of NaHCO3, 3.5 g/L of D-glucose and 10% v/v fetal bovine serum were added.
(§2) CV-1 cells were seeded on the 384-well white plate (781080, produced by Greiner) to become 1.5×10^4 cells/30 μL per one well. Then, gene transfer was conducted in accordance with the manual by using OPTI-MEM I (11058-021, produced by GIBCO), FuGENE6 (1-815-075, produced by Roche) and the above PPAR-α plasmid mixed solution. The incubation was conducted in a carbon-dioxide incubator at 37° C. for 6 to 8 hours. Then, a diluted tested compound was added thereto and incubated in a carbon-dioxide incubator at 37° C. for 16 to 18 hours. Britelite (6016979, produced by PerkinElmer) was further added thereto and stirred, and the luciferase activity was measured with EnVision (produced by PerkinElmer).
(§3) Specifying the luciferase activity without addition of a tested compound as 1, the induction ratio of the luciferase activity by each tested compound was calculated.

PPAR-γ = biological target: T2, PPAR-γ (Homo sapiens, UniProt P37231); test: PPAR-γ reporter assay (GAL4 luciferase, CV-1 cells); assay type: cell-based; conditions: induction ratio of luciferase activity at 25 μM, activity without tested compound = 1, hGR-GAL4-hPPAR-γ
T2 construct: expressed in transfected cells; host or cells: CV-1 (African green monkey kidney)
T2 sequence (P37231 204-505): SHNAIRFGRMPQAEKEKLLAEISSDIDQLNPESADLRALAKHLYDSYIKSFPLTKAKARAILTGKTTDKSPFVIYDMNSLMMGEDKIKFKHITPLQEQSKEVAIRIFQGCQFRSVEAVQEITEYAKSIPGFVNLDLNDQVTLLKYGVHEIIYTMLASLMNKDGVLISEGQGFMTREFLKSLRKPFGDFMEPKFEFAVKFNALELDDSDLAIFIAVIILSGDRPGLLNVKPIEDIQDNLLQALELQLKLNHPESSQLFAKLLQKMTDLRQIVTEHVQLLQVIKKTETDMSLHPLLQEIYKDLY
Procedure: The reporter assay of PPAR-γ was conducted by using the following plasmids in accordance with the known report (Steven A. Kliwer et al., The Journal of Biological Chemistry Vol. 270, No. 22: 12953-12956, 1995).
As luciferase expressing plasmid, used was the plasmid which introduces the sequence wherein 5 yeast GAL4 binding sequences, UAS, are tandemly connected to the upstream of the thymidine kinase promoter of pTAL-Luc (#6252-1, produced by Clontech) (UAS×5-TK-Luc) (1).
as §1, with “As PPAR-γ” for “As PPAR-α”, “and PPAR-γ2” for “and PPAR-α”, “domain (204-505aa)” for “domain (167-468aa)”, “Stratagene) (hGR-GAL4-hPPAR-γ)” for “Stratagene) (hGR-GAL4-hPPAR-α)”, “of PPAR-γ” for “of PPAR-α”
as §2, with “PPAR-γ” for “PPAR-α”
as §3

Row | SMILES | PPAR-α induction ratio (PPAR-α) | PPAR-γ induction ratio (PPAR-γ)
1 | CCCCCCCCCCC(=O)N[C@@H](CC(C)C)C(=O)O [Example 11] | 3.0 | 11.6
2 | CCCCCCCCCCCC(=O)N[C@@H](Cc1csc2ccccc12)C(=O)O [Example 43] | 3.0 | 2.2
3 | CCCCCCCCCCCCCC(=O)N[C@H](C(=O)O)[C@@H](C)CC [Example 25] | 50.0 | 27.4
